Assay results reported in DBAASP.
Values after ≈ are worked out from the molar mass of the structure shown. One block for each molecule: values may come before it.

How the values were obtained:
Test in all cases: ≥ marks a high value that may be exact or a test limit, other limits are often not marked, values filed in µg/mL are converted to µM
[1] = test system: Bacillus subtilis ISW 1214
Escherichia coli BL21 = test system: Escherichia coli BL21
Escherichia coli W160-37 = test system: Escherichia coli W160-37
[2] = test system: Pseudomonas putida NCIM 2102
[3] = test system: Saccharomyces cerevisiae ATCC 8530
[4] = test system: Staphylococcus aureus ATCC 8530
[5] = test system: Enterococcus faecalis ATCC 29212
[6] = test system: Escherichia coli ATCC 25922
[7] = test system: Klebsiella pneumoniae ATCC 700603
[8] = test system: Micrococcus luteus ATCC 49732
[9] = test system: Neisseria gonorrhoeae ATCC 49226
[10] = test system: Proteus vulgaris ATCC 49132
[11] = test system: Salmonella enterica subsp. enterica serovar Typhimurium ATCC 14028
Serratia sp. ATCC 39006 = test system: Serratia sp. ATCC 39006
[12] = test system: Shigella sonnei ATCC 25931
[13] = test system: Staphylococcus aureus ATCC 25923
[14] = test system: Staphylococcus aureus ATCC 43330
[15] = test system: Staphylococcus epidermidis ATCC 12228
[16] = test system: Staphylococcus saprophyticus ATCC 15305
[17] = test system: Streptococcus agalactiae ATCC 12386
[18] = test system: Bacillus subtilis KCTC 3038
[19] = test system: Candida albicans ATCC 10231
[20] = test system: Cryptococcus neoformans ATCC 34881
[21] = test system: Escherichia coli ATCC 27325
[22] = test system: Micrococcus luteus ATCC 10240
[23] = test system: Pseudomonas aeruginosa ATCC 27853
[24] = test system: Saccharomyces cerevisiae ATCC 44774
[25] = test system: Salmonella typhimurium KCTC 2370
[26] = test system: Staphylococcus aureus ATCC 15752
Bacillus cereus AS1.126 = test system: Bacillus cereus AS1.126
[27] = test system: Enterobacter cloacae CGMCC 1.58
[28] = test system: Enterococcus faecalis CGMCC 1.595
[29] = test system: Enterococcus faecium CGMCC 1.2334
Escherichia coli AS1.349 = test system: Escherichia coli AS1.349
[30] = test system: Klebsiella pneumoniae subsp. pneumoniae CGMCC 1.176
[31] = test system: Proteus mirabilis CICC 22931
[32] = test system: Pseudomonas aeruginosa 0108
[33] = test system: Pseudomonas aeruginosa CGMCC 1.860
[34] = test system: Staphylococcus aureus AS1.72
[35] = test system: Staphylococcus epidermidis CICC 23664
[36] = test system: Staphylococcus epidermidis

- MIC [1]: ≥ 160 µM
- MIC (Escherichia coli BL21): ≥ 160 µM
Structure (SMILES): CC(=O)NCC(=O)N[C@@H](Cc1c[nH]c2ccccc12)C(=O)N[C@@H](CCC(N)=O)C(=O)N[C@@H](CC(C)C)C(=O)N[C@@H](CC(C)C)C(=O)N[C@@H](C)C(=O)N[C@@H](CC(C)C)C(=O)N[C@@H](Cc1cnc[nH]1)C(=O)N[C@@H](CC(C)C)C(=O)N[C@@H](CCC(N)=O)C(=O)N[C@@H](CC(C)C)C(=O)N[C@@H](CC(C)C)C(=O)NCC(=O)N[C@@H](CC(C)C)C(=O)N[C@@H](Cc1cnc[nH]1)C(=O)N[C@@H](CC(C)C)C(=O)N[C@@H](CC(C)C)C(=O)N[C@@H](CCC(N)=O)C(=O)N[C@@H](CC(C)C)C(=O)N[C@@H](C)C(=O)N[C@@H](CC(C)C)C(=O)N[C@@H](CC(C)C)C(=O)N[C@@H](CCC(N)=O)C(=O)N[C@@H](CCCN=C(N)N)C(=O)N[C@@H](CCCN=C(N)N)C(=O)N[C@@H](CCCN=C(N)N)C(N)=O [GWQLLALHLQLLGLHLLQLALLQRRR]

- MIC (Escherichia coli W160-37): ≥ 48.1 µM
- MIC [2]: ≥ 48.1 µM
- MIC [3]: ≥ 80.2 µM
- MIC [4]: ≥ 40.1 µM
Structure (SMILES): CC[C@H](C)[C@@H]1NC(=O)[C@@H]2CCCN2C(=O)[C@H](CC(C)C)NC(=O)[C@@H]2CCCN2C(=O)[C@H]([C@@H](C)CC)NC(=O)[C@H](C)NC(=O)[C@H](Cc2ccc(O)cc2)NC(=O)[C@@H](NC(=O)[C@@H](NC(=O)[C@@H](N)CCCN=C(N)N)C(C)C)CSSC[C@@H](C(N)=O)NC1=O [RVCYAIPLPIC]

- MIC [5]: 0.934 µM (≈ 3.13 µg/mL)
- MIC [6]: 0.934 µM (≈ 3.13 µg/mL)
- MIC [7]: 2.15 µM (≈ 7.21 µg/mL)
- MIC [8]: 0.63 µM (≈ 2.11 µg/mL)
- MIC [9]: 2.49 µM (≈ 8.33 µg/mL)
- MIC [10]: 2.49 µM (≈ 8.33 µg/mL)
- MIC [11]: 2.15 µM (≈ 7.21 µg/mL)
- MIC (Serratia sp. ATCC 39006): 0.63 µM (≈ 2.11 µg/mL)
- MIC [12]: 0.537 µM (≈ 1.8 µg/mL)
- MIC [13]: 1.22 µM (≈ 4.1 µg/mL)
- MIC [14]: 3.73 µM (≈ 12.5 µg/mL)
- MIC [15]: 2.49 µM (≈ 8.33 µg/mL)
- MIC [16]: 1.22 µM (≈ 4.1 µg/mL)
- MIC [17]: 1.4 µM (≈ 4.7 µg/mL)
Structure (SMILES): CC[C@H](C)[C@H](NC(=O)CNC(=O)[C@H](C)NC(=O)[C@H](C)NC(=O)[C@@H](NC(=O)[C@@H](NC(=O)[C@H](CC(N)=O)NC(=O)[C@@H](NC(=O)[C@H](C)NC(=O)[C@@H](NC(=O)[C@@H]1CCCN1C(=O)[C@@H](NC(=O)[C@H](CC(C)C)NC(=O)[C@@H]1CCCN1C(=O)[C@H](Cc1c[nH]c2ccccc12)NC(=O)[C@H](Cc1ccccc1)NC(=O)[C@H](CCCN=C(N)N)NC(=O)[C@H](CCCCN)NC(=O)[C@@H](NC(=O)[C@@H](N)CCCN=C(N)N)C(C)C)C(C)C)C(C)C)[C@@H](C)CC)[C@@H](C)O)C(C)C)C(=O)N[C@@H](CC(N)=O)C(=O)N[C@@H](CC(C)C)C(=O)N[C@@H](Cc1ccc(O)cc1)C(=O)N[C@@H](CCCCN)C(=O)N[C@@H](C)C(=O)N[C@H](C(=O)N[C@@H](CCCN=C(N)N)C(=O)N[C@@H](CCCN=C(N)N)C(=O)N[C@@H](CCCCN)C(N)=O)[C@@H](C)CC [RVKRFWPLVPVAINTVAAGINLYKAIRRK]

- MIC [18]: ≥ 35.7 µM
- MIC [19]: 35.7 µM (≈ 64 µg/mL)
- MIC [20]: ≥ 35.7 µM
- MIC [5]: > 35.7 µM
- MIC [21]: ≥ 35.7 µM
- MIC [22]: ≥ 35.7 µM
- MIC [23]: > 35.7 µM
- MIC [24]: ≥ 35.7 µM
- MIC [25]: ≥ 35.7 µM
- MIC [26]: ≥ 35.7 µM
Structure (SMILES): CC(C)[C@H](NC(=O)[C@H](CCCCN)NC(=O)[C@H](CCC(=O)O)NC(=O)[C@H](CCCCN)NC(=O)[C@@H](NC(=O)[C@@H](NC(=O)[C@H](CCC(N)=O)NC(=O)[C@@H](NC(=O)[C@@H](NC(=O)[C@@H]1CCCN1C(=O)[C@H](CCCN=C(N)N)NC(=O)[C@@H](NC(=O)[C@@H](NC(=O)[C@@H](N)CCCN=C(N)N)C(C)C)C(C)C)C(C)C)C(C)C)C(C)C)C(C)C)C(=O)N[C@@H](CCCN=C(N)N)C(=O)O [RVVRPVVQVVKEKVR]

- MIC (Bacillus cereus AS1.126): 3.13 µM (≈ 5.32 µg/mL)
- MIC [27]: 3.13 µM (≈ 5.32 µg/mL)
- MIC [28]: 1.56 µM (≈ 2.65 µg/mL)
- MIC [29]: 3.13 µM (≈ 5.32 µg/mL)
- MIC (Escherichia coli AS1.349): 6.25 µM (≈ 10.6 µg/mL)
- MIC [30]: 25 µM (≈ 42.5 µg/mL)
- MIC [31]: 6.25 µM (≈ 10.6 µg/mL)
- MIC [32]: 12.5 µM (≈ 21.2 µg/mL)
- MIC [33]: 6.25 µM (≈ 10.6 µg/mL)
- MIC [34]: 3.13 µM (≈ 5.32 µg/mL)
- MIC [35]: 1.56 µM (≈ 2.65 µg/mL)
- MIC [36]: 3.12 µM (≈ 5.3 µg/mL)
Structure (SMILES): CC[C@H](C)[C@H](NC(=O)[C@H](CCCCN)NC(=O)[C@H](CO)NC(=O)[C@H](Cc1c[nH]c2ccccc12)NC(=O)[C@@H](NC(=O)[C@H](CCCCN)NC(=O)[C@H](CCCCN)NC(=O)[C@@H](N)Cc1c[nH]c2ccccc12)[C@@H](C)CC)C(=O)N[C@@H](CCCCN)C(=O)N[C@@H](CCCCN)C(=O)N[C@@H](CC(C)C)C(=O)N[C@@H](CC(C)C)C(=O)N[C@@H](CCCCN)C(N)=O [WKKIWSKIKKLLK]
